# Laboratory results: patent publication US20220118116A1, “ADHESIVE/ADSORPTION SWITCH ON NANOPARTICLES TO INCREASE TUMOR UPTAKE AND DELAY TUMOR CLEARANCE” (The Johns Hopkins University, priority 2019, published 2022)
# Like-named read-outs stand apart in the source and are kept apart here.
# How the values were obtained:
# MDA-MB-231 (ALN2) = test: IC50 on cell monolayers (MTT assay); format: cell-based, human; conditions: 6-hour incubation, read-out: IC50 of free cisplatin
# Method: (§1) To determine the IC50 of liposomal cisplatin and of free cisplatin, 20,000 cells per well were plated in 96-well plates. A range of concentrations of sterilized liposomes (containing or not cisplatin) or of free cisplatin was added to the wells mixed in media (with 10% FBS) at pH 7.4 and pH 6.5. Upon completion of a 6-hour incubation, cells were washed twice with PBS, and 10% FBS-supplemented fresh media was then added to wells. After two doubling times an MTT assay (Promega, Madison, Wis.) was used (following the vendor's instructions) to evaluate percent cell viability. Absorbance was read at 570 nm.
# as §1, with “sterile” for “sterilized”, “6 hour” for “6-hour”
# MDA-MB-231 (ATCC) = test: IC50 on cell monolayers (MTT assay); format: cell-based, human; conditions: 6-hour incubation, read-out: IC50 of free cisplatin
# Method: as §1
# as §1, with “sterile” for “sterilized”, “6 hour” for “6-hour”
# MDA-MB-231 (LUNG1) = test: IC50 on cell monolayers (MTT assay); format: cell-based, human; conditions: 6-hour incubation, read-out: IC50 of free cisplatin
# Method: as §1
# as §1, with “sterile” for “sterilized”, “6 hour” for “6-hour”
# MDA-MB-231 (PRI3) = test: IC50 on cell monolayers (MTT assay); format: cell-based, human; conditions: 6-hour incubation, read-out: IC50 of free cisplatin
# Method: as §1
# as §1, with “sterile” for “sterilized”, “6 hour” for “6-hour”
# MDA-MB-436 (ATCC) = test: IC50 on cell monolayers (MTT assay); format: cell-based, human; conditions: 6-hour incubation, read-out: IC50 of free cisplatin
# Method: as §1
# as §1, with “sterile” for “sterilized”, “6 hour” for “6-hour”
# [1] = Leite et al., 2012; cited from earlier work
# [2] = test system: spontaneous MDA-MB-231 axillary lymph node (ALN) metastases; test: Growth control of spontaneous TNBC metastases in vivo (cisplatin); conditions: 7.5 mg/Kg i.v., three times in five-day intervals
structure (smiles),measurement,setting,value
"N.N.[Cl][Pt][Cl] [free cisplatin, cis-diamminedichloroplatinum (II)]",IC50,MDA-MB-231 (ALN2); pH 6.5,40.2 ± 7.4 µM
same,IC50,MDA-MB-231 (ALN2); pH 7.4,39.2 ± 5.9 µM
same,IC50,MDA-MB-231 (ATCC); pH 6.5,47.7 ± 4.4 µM
same,IC50,MDA-MB-231 (ATCC); pH 7.4,45.2 ± 8.2 µM
same,IC50,MDA-MB-231 (LUNG1); pH 6.5,42.6 ± 6.2 µM
same,IC50,MDA-MB-231 (LUNG1); pH 7.4,40.2 ± 6.4 µM
same,IC50,MDA-MB-231 (PRI3); pH 6.5,37.7 ± 13.4 µM
same,IC50,MDA-MB-231 (PRI3); pH 7.4,32.4 ± 7.8 µM
same,IC50,MDA-MB-436 (ATCC); pH 6.5,3.2 ± 0.73 µM
same,IC50,MDA-MB-436 (ATCC); pH 7.4,2.46 ± 0.9 µM
same,reported MTD,[1],7.5 mg/kg
same,animal survival,[2],shortest animal survival
same,animals euthanized because of weight loss,[2],100%
